{"source": "patent US6958342B2", "about": "“Polymorphs of N-methyl-N-(3-{3-[2-thienylcarbonyl]-pyrazol-[1,5-α]-pyrimidin-7-yl}phenyl)acetamide and compositions and methods related thereto” (Neurocrine Biosciences, Inc., priority 1999, dated 2005)", "key": {"[1]": {"assay": "Approximate solubility of Form I and Form II in various solvents", "assay_type": "physicochemical", "from_the_text": "In addition, the lower melting point polymorph, Form II, also has significant advantages over the polymorphic mixture of Compound 1 as prepared according to known techniques. […] Form II is generally more soluble in polar and protic solvents than is Form I. Enhanced solubility of a compound will generally increase the bioavailability of that compound. When absorption of a drug is dissolution rate limited, use of the more soluble and faster dissolving form improves the rate and extent of bioavailability."}, "[2]": {"assay": "Physical (polymorphic) stability of the solid form", "assay_type": "physicochemical", "settings": "stability toward conversion to a different polymorphic form; compared with the polymorphic mixture of Compound 1", "from_the_text": "The polymorph Form I is considered a heat stable form of Compound 1. By “heat stable” or “physically stable” is meant that the Form I is stable toward conversion to the polymorph Form II; although, it may be labile toward degradation to other compounds.\nAs the higher melting point polymorph, Form I has significant advantages over the polymorphic mixture of Compound 1 prepared according to known techniques. […] This, in turn, enhances the milling and compaction properties of the drug substance."}}}
{"substance": "N-methyl-N-(3-{3-[2-thienylcarbonyl]-pyrazol-[1,5-α]-pyrimidin-7-yl}phenyl)acetamide [Form I]", "values": [{"measurement": "Solubility", "setting": "[1]; Acetone", "result": 4842, "unit": "µg/mL"}, {"measurement": "Solubility", "setting": "[1]; Acetonitrile", "result": 6246, "unit": "µg/mL"}, {"measurement": "Solubility", "setting": "[1]; De-ionized water", "result": 8.3, "unit": "µg/mL"}, {"measurement": "Solubility", "setting": "[1]; Diethyl ether", "result": 80, "unit": "µg/mL"}, {"measurement": "Solubility", "setting": "[1]; Ethanol, absolute (100%)", "result": 1426, "unit": "µg/mL"}, {"measurement": "Solubility", "setting": "[1]; Ethyl acetate", "result": 1600, "unit": "µg/mL"}, {"measurement": "Solubility", "setting": "[1]; Hexane", "result": 41, "unit": "µg/mL"}, {"measurement": "Solubility", "setting": "[1]; Isopropanol", "result": 441, "unit": "µg/mL"}, {"measurement": "Solubility", "setting": "[1]; Methanol", "result": 1740, "unit": "µg/mL"}, {"measurement": "Solubility", "setting": "[1]; Polyethylene Glycol 400, NF", "result": 3259, "unit": "µg/mL"}, {"measurement": "Solubility", "setting": "[1]; Tetrahydrofuran", "result": 9964, "unit": "µg/mL"}, {"measurement": "Solubility", "setting": "[1]; Toluene", "result": 997, "unit": "µg/mL"}, {"measurement": "Physical stability, in words", "setting": "[2]", "result": "superior physical stability"}]}
{"substance": "N-methyl-N-(3-{3-[2-thienylcarbonyl]-pyrazol-[1,5-α]-pyrimidin-7-yl}phenyl)acetamide [Form II]", "values": [{"measurement": "Solubility", "setting": "[1]; Acetone", "result": 6873, "unit": "µg/mL"}, {"measurement": "Solubility", "setting": "[1]; Acetonitrile", "result": 8928, "unit": "µg/mL"}, {"measurement": "Solubility", "setting": "[1]; De-ionized water", "result": 18.8, "unit": "µg/mL"}, {"measurement": "Solubility", "setting": "[1]; Diethyl ether", "result": 51, "unit": "µg/mL"}, {"measurement": "Solubility", "setting": "[1]; Ethanol, absolute (100%)", "result": 1722, "unit": "µg/mL"}, {"measurement": "Solubility", "setting": "[1]; Ethyl acetate", "result": 2160, "unit": "µg/mL"}, {"measurement": "Solubility", "setting": "[1]; Hexane", "result": 50, "unit": "µg/mL"}, {"measurement": "Solubility", "setting": "[1]; Isopropanol", "result": 457, "unit": "µg/mL"}, {"measurement": "Solubility", "setting": "[1]; Methanol", "result": 1915, "unit": "µg/mL"}, {"measurement": "Solubility", "setting": "[1]; Polyethylene Glycol 400, NF", "result": 10100, "unit": "µg/mL"}, {"measurement": "Solubility", "setting": "[1]; Tetrahydrofuran", "result": 14740, "unit": "µg/mL"}, {"measurement": "Solubility", "setting": "[1]; Toluene", "result": 645, "unit": "µg/mL"}, {"measurement": "Water solubility, in words", "setting": "[1]; compared with Form I", "result": "superior water solubility over Form I"}]}
